Experimental data taken from ChEMBL document CHEMBL3045059, “Efficacy of ketoenols on insecticide resistant field populations of two-spotted spider mite Tetranychus urticae and sweet potato whitefly Bemisia tabaci from Greece” (2012).
Converted amounts (≈) assume the structure as drawn.

Experiments:
Assay type in all cases: functional
Tetranychus urticae [1] = experiment: Resistance ratio, ratio of LC50 for larvae of Tetranychus urticae (two-spotted spider mite) mixed strain ALL-14 selected with spirodiclofen for 14 generations to LC50 for larvae of Tetranychus urticae (two-spotted spider mite) laboratory strain SAMB measured after 6 days
Tetranychus urticae [2] = experiment: Resistance ratio, ratio of LC50 for larvae of Tetranychus urticae (two-spotted spider mite) greenhouse population TU7 to LC50 for larvae of Tetranychus urticae laboratory strain SAMB measured after 6 days
Tetranychus urticae [3] = experiment: Resistance ratio, ratio of LC50 for larvae of Tetranychus urticae (two-spotted spider mite) greenhouse population TU11 to LC50 for larvae of Tetranychus urticae laboratory strain SAMB measured after 6 days
Tetranychus urticae [4] = experiment: Resistance ratio, ratio of LC50 for larvae of Tetranychus urticae (two-spotted spider mite) greenhouse population TU9 to LC50 for larvae of Tetranychus urticae laboratory strain SAMB measured after 6 days
Tetranychus urticae [5] = experiment: Resistance ratio, ratio of LC50 for larvae of Tetranychus urticae (two-spotted spider mite) field population TU4 to LC50 for larvae of Tetranychus urticae laboratory strain SAMB measured after 6 days
Tetranychus urticae [6] = experiment: Resistance ratio, ratio of LC50 for larvae of Tetranychus urticae (two-spotted spider mite) greenhouse population TU3 to LC50 for larvae of Tetranychus urticae laboratory strain SAMB measured after 6 days
Tetranychus urticae [7] = experiment: Resistance ratio, ratio of LC50 for larvae of Tetranychus urticae (two-spotted spider mite) field population TU12 to LC50 for larvae of Tetranychus urticae laboratory strain SAMB measured after 6 days
Tetranychus urticae [8] = experiment: Resistance ratio, ratio of LC50 for larvae of Tetranychus urticae (two-spotted spider mite) greenhouse population TU5 to LC50 for larvae of Tetranychus urticae laboratory strain SAMB measured after 6 days
Tetranychus urticae [9] = experiment: Resistance ratio, ratio of LC50 for larvae of Tetranychus urticae (two-spotted spider mite) field population TU2 to LC50 for larvae of Tetranychus urticae laboratory strain SAMB measured after 6 days
Tetranychus urticae [10] = experiment: Resistance ratio, ratio of LC50 for larvae of Tetranychus urticae (two-spotted spider mite) greenhouse population TU1 to LC50 for larvae of Tetranychus urticae laboratory strain SAMB measured after 6 days
Tetranychus urticae [11] = experiment: Resistance ratio, ratio of LC50 for larvae of Tetranychus urticae (two-spotted spider mite) field population TU6 to LC50 for larvae of Tetranychus urticae laboratory strain SAMB measured after 6 days
Tetranychus urticae [12] = experiment: Resistance ratio, ratio of LC50 for larvae of Tetranychus urticae (two-spotted spider mite) laboratory strain GSS to LC50 for larvae of Tetranychus urticae laboratory strain SAMB measured after 6 days
Tetranychus urticae [13] = experiment: Acaricidal activity against larvae of Tetranychus urticae (two-spotted spider mite) mixed strain ALL-14 selected with spirodiclofen for 14 generations in bean leaves assessed as mortality by applying constant selection pressure under laboratory conditions
Tetranychus urticae [14] = experiment: Acaricidal activity against larvae of Tetranychus urticae (two-spotted spider mite) greenhouse population TU7 in bean leaves assessed as mortality applied at 1 bar pressure measured after 6 days
Tetranychus urticae [15] = experiment: Acaricidal activity against larvae of Tetranychus urticae (two-spotted spider mite) greenhouse population TU11 in bean leaves assessed as mortality applied at 1 bar pressure measured after 6 days
Tetranychus urticae [16] = experiment: Acaricidal activity against larvae of Tetranychus urticae (two-spotted spider mite) greenhouse population TU9 in bean leaves assessed as mortality applied at 1 bar pressure measured after 6 days
Tetranychus urticae [17] = experiment: Acaricidal activity against larvae of Tetranychus urticae (two-spotted spider mite) field population TU4 in bean leaves assessed as mortality applied at 1 bar pressure measured after 6 days
Tetranychus urticae [18] = experiment: Acaricidal activity against larvae of Tetranychus urticae (two-spotted spider mite) greenhouse population TU3 in bean leaves assessed as mortality applied at 1 bar pressure measured after 6 days
Tetranychus urticae [19] = experiment: Acaricidal activity against larvae of Tetranychus urticae (two-spotted spider mite) field population TU12 in bean leaves assessed as mortality applied at 1 bar pressure measured after 6 days
Tetranychus urticae [20] = experiment: Acaricidal activity against larvae of Tetranychus urticae (two-spotted spider mite) greenhouse population TU5 in bean leaves assessed as mortality applied at 1 bar pressure measured after 6 days
Tetranychus urticae [21] = experiment: Acaricidal activity against larvae of Tetranychus urticae (two-spotted spider mite) field population TU2 in bean leaves assessed as mortality applied at 1 bar pressure measured after 6 days
Tetranychus urticae [22] = experiment: Acaricidal activity against larvae of Tetranychus urticae (two-spotted spider mite) greenhouse population TU1 in bean leaves assessed as mortality applied at 1 bar pressure measured after 6 days
Tetranychus urticae [23] = experiment: Acaricidal activity against larvae of Tetranychus urticae (two-spotted spider mite) field population TU6 in bean leaves assessed as mortality applied at 1 bar pressure measured after 6 days
Tetranychus urticae [24] = experiment: Acaricidal activity against larvae of Tetranychus urticae (two-spotted spider mite) laboratory strain GSS in bean leaves assessed as mortality applied at 1 bar pressure measured after 6 days
Tetranychus urticae [25] = experiment: Acaricidal activity against larvae of Tetranychus urticae (two-spotted spider mite) laboratory strain SAMB in bean leaves assessed as mortality applied at 1 bar pressure measured after 6 days

`CCC(C)(C)C(=O)OC1=C(c2ccc(Cl)cc2Cl)C(=O)OC12CCCCC2` [SPIRODICLOFEN] was tested, and the RatioLC50 (Tetranychus urticae [1]) was 4.3, the RatioLC50 (Tetranychus urticae [2]) was 12 and the RatioLC50 (Tetranychus urticae [3]) was 3.9. For the same compound, the RatioLC50 (Tetranychus urticae [4]) was 2.2, the RatioLC50 (Tetranychus urticae [5]) was 1.1 and the RatioLC50 (Tetranychus urticae [6]) was 0.7. The RatioLC50 (Tetranychus urticae [7]) was 2.5, the RatioLC50 (Tetranychus urticae [8]) was 1.1 and the RatioLC50 (Tetranychus urticae [9]) was 1.4. It also gave a RatioLC50 (Tetranychus urticae [10]) of 1.2, a RatioLC50 (Tetranychus urticae [11]) of 0.2 and a RatioLC50 (Tetranychus urticae [12]) of 0.6. The LC95 (Tetranychus urticae [13]) was 32.1 mg/L (≈ 78 µM), the LC50 (Tetranychus urticae [13]; Tetranychus urticae, mixed strain ALL-14) was 9.5 µg/mL (≈ 23.1 µM) and the LC95 (Tetranychus urticae [14]) was 87.7 mg/L (≈ 213 µM). For the same compound, the LC50 (Tetranychus urticae [14]; Tetranychus urticae, TU7, 144 h) was 27 µg/mL (≈ 65.6 µM), the LC95 (Tetranychus urticae [15]) was 46.1 mg/L (≈ 112 µM) and the LC50 (Tetranychus urticae [15]; Tetranychus urticae, TU11, 144 h) was 8.7 µg/mL (≈ 21.2 µM). The LC95 (Tetranychus urticae [16]) was 43.4 mg/L (≈ 106 µM), the LC50 (Tetranychus urticae [16]; Tetranychus urticae, TU9, 144 h) was 5 µg/mL (≈ 12.2 µM) and the LC95 (Tetranychus urticae [17]) was 8 mg/L (≈ 19.4 µM). It also gave an LC50 (Tetranychus urticae [17]; Tetranychus urticae, TU4, 144 h) of 2.5 µg/mL (≈ 6.08 µM), an LC95 (Tetranychus urticae [18]) of 5 mg/L (≈ 12.2 µM) and an LC50 (Tetranychus urticae [18]; Tetranychus urticae, TU3, 144 h) of 1.6 µg/mL (≈ 3.89 µM). The LC95 (Tetranychus urticae [19]) was 23.8 mg/L (≈ 57.9 µM), the LC50 (Tetranychus urticae [19]; Tetranychus urticae, TU12, 144 h) was 5.5 µg/mL (≈ 13.4 µM) and the LC95 (Tetranychus urticae [20]) was 4.6 mg/L (≈ 11.2 µM). For the same compound, the LC50 (Tetranychus urticae [20]; Tetranychus urticae, TU5, 144 h) was 2.5 µg/mL (≈ 6.08 µM), the LC95 (Tetranychus urticae [21]) was 18.6 mg/L (≈ 45.2 µM) and the LC50 (Tetranychus urticae [21]; Tetranychus urticae, TU2, 144 h) was 3.2 µg/mL (≈ 7.78 µM). It also gave an LC95 (Tetranychus urticae [22]) of 17.9 mg/L (≈ 43.5 µM), an LC50 (Tetranychus urticae [22]; Tetranychus urticae, TU1, 144 h) of 2.7 µg/mL (≈ 6.56 µM) and an LC95 (Tetranychus urticae [23]) of 2.3 mg/L (≈ 5.59 µM). For the same compound, the LC50 (Tetranychus urticae [23]; Tetranychus urticae, TU6, 144 h) was 0.5 µg/mL (≈ 1.22 µM), the LC95 (Tetranychus urticae [24]) was 4 mg/L (≈ 9.72 µM) and the LC50 (Tetranychus urticae [24]; Tetranychus urticae, GSS, 144 h) was 1.4 µg/mL (≈ 3.4 µM). The LC95 (Tetranychus urticae [25]) was 7.8 mg/L (≈ 19 µM) and the LC50 (Tetranychus urticae [25]; Tetranychus urticae, SAMB, 144 h) was 2.2 µg/mL (≈ 5.35 µM).
